Laboratory results reported in the supplement of paper PMC10307832.

How the values were obtained:
Test in all cases: relative viability (nuclei count vs DMSO), 5 days (fraction); higher = more cells survive
Idelalisib + Lapatinib = compound: CC[C@H](Nc1ncnc2[nH]cnc12)c1nc2cccc(F)c2c(=O)n1-c1ccccc1 [Idelalisib] + CS(=O)(=O)CCNCc1ccc(-c2ccc3ncnc(Nc4ccc(OCc5cccc(F)c5)c(Cl)c4)c3c2)o1 [Lapatinib] (partner 2 µM)
How it was run: (§1)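 Lung cancer cell lines, seeded in 1536-well plates, were treated the following day by pin tool with a single drug or with five library-drug doses (not always all listed) in √10 steps on top of a fixed anchor-drug dose. Cells were fixed and nuclei stained in one step after 5 days, and nuclei were counted. Relative viability is the nuclei count for treated wells divided by that for vehicle wells, reported as medians of duplicate plates.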

Idelalisib + Crizotinib = compound: CC[C@H](Nc1ncnc2[nH]cnc12)c1nc2cccc(F)c2c(=O)n1-c1ccccc1 [Idelalisib] + C[C@@H](Oc1cc(-c2cnn(C3CCNCC3)c2)cnc1N)c1c(Cl)ccc(F)c1Cl [Crizotinib] (partner 1 µM)
How it was run: as §1

Idelalisib + Dasatinib = compound: CC[C@H](Nc1ncnc2[nH]cnc12)c1nc2cccc(F)c2c(=O)n1-c1ccccc1 [Idelalisib] + Cc1nc(Nc2ncc(C(=O)Nc3c(C)cccc3Cl)s2)cc(N2CCN(CCO)CC2)n1 [Dasatinib] (partner 0.075 µM)
How it was run: as §1

Pemetrexed + Phenformin = compound: Nc1nc2[nH]cc(CCc3ccc(C(=O)N[C@@H](CCC(=O)O)C(=O)O)cc3)c2c(=O)[nH]1 [Pemetrexed] + N=C(N)NC(=N)NCCc1ccccc1 [Phenformin] (partner 250 µM)
How it was run: as §1

Question: How did the relative viability (Idelalisib + Lapatinib; first compound 0.04 µM) turn out when UMC-11 was run?
Answer: 1

Question: What about the relative viability (Idelalisib + Lapatinib; first compound 0.1265 µM) of the same cell line?
Answer: 1.02

Question: And the relative viability (Idelalisib + Lapatinib; first compound 0.4 µM)?
Answer: 0.985

Question: What about the relative viability (Idelalisib + Lapatinib; first compound 1.265 µM) of the same cell line?
Answer: 1.14

Question: And the relative viability (Idelalisib + Lapatinib; first compound 4 µM)?
Answer: 0.976

Question: And the relative viability (Idelalisib + Crizotinib; first compound 0.04 µM)?
Answer: 0.708

Question: And the relative viability (Idelalisib + Crizotinib; first compound 0.1265 µM)?
Answer: 0.694

Question: And the relative viability (Idelalisib + Crizotinib; first compound 0.4 µM)?
Answer: 0.583

Question: What about the relative viability (Idelalisib + Crizotinib; first compound 1.265 µM) of the same cell line?
Answer: 0.541

Question: What about the relative viability (Idelalisib + Crizotinib; first compound 4 µM) of the same cell line?
Answer: 0.57

Question: What about the relative viability (Idelalisib + Dasatinib; first compound 0.04 µM) of the same cell line?
Answer: 0.349

Question: And the relative viability (Idelalisib + Dasatinib; first compound 0.1265 µM)?
Answer: 0.492

Question: What about the relative viability (Idelalisib + Dasatinib; first compound 0.4 µM) of the same cell line?
Answer: 0.391

Question: And the relative viability (Idelalisib + Dasatinib; first compound 1.265 µM)?
Answer: 0.564

Question: What about the relative viability (Idelalisib + Dasatinib; first compound 4 µM) of the same cell line?
Answer: 0.474

Question: What about the relative viability (Pemetrexed + Phenformin; first compound 0.002 µM) of the same cell line?
Answer: 0.325

Question: What about the relative viability (Pemetrexed + Phenformin; first compound 0.006325 µM) of the same cell line?
Answer: 0.311

Question: And the relative viability (Pemetrexed + Phenformin; first compound 0.02 µM)?
Answer: 0.312

Question: What about the relative viability (Pemetrexed + Phenformin; first compound 0.06325 µM) of the same cell line?
Answer: 0.334

Question: And the relative viability (Pemetrexed + Phenformin; first compound 0.2 µM)?
Answer: 0.347
